Test results as given in article PMC5114172 (Journal of applied toxicology : JAT, 2016).

System: MD-PBMCs
Assay: IL-1β secretion
Format: cell-based, human

Structure (SMILES): CCC[CH2][Sn][CH2]CCC [DBT, Dibutyltin]
- Interleukin 1 beta secreted (donor F240, 24 h, 0.1 μM DBT + Caspase-1 inhibitor II 50 μM): 467 ± 12 pg/mL
- Interleukin 1 beta secreted (donor F240, 24 h, 0.1 μM DBT + U0126 50 μM): 1447 ± 142 pg/mL
- fold increase in IL-1β secretion (donor F240, 24 h, 0.1 μM DBT, absence of MEK inhibitor): 1.6 fold
- Interleukin 1 beta secreted (donor F240, 24 h, 0.1 μM DBT, no inhibitor (CI experiment)): 916 ± 67 pg/mL
- Interleukin 1 beta secreted (donor F240, 24 h, 0.1 μM DBT, no inhibitor (U0126 experiment)): 812 ± 109 pg/mL
- fold increase in IL-1β secretion (donor F240, 24 h, 0.05 and 0.1 μM DBT, U0126 50 μM present): no DBT-induced increases
- Interleukin 1 beta secreted (donor F242, 24 h, 0.05 μM DBT + Caspase-1 inhibitor II 50 μM): 495 ± 25 pg/mL
- Interleukin 1 beta secreted (donor F242, 24 h, 0.05 μM DBT + U0126 50 μM): 759 ± 10 pg/mL
- Interleukin 1 beta secreted (donor F242, 24 h, 0.05 μM DBT, no inhibitor (CI experiment)): 2752 ± 49 pg/mL
- Interleukin 1 beta secreted (donor F242, 24 h, 0.05 μM DBT, no inhibitor (U0126 experiment)): 2230 ± 89 pg/mL
- Interleukin 1 beta secreted (donor F242, 24 h, 0.1 μM DBT + Caspase-1 inhibitor II 50 μM): 354 ± 43 pg/mL
- Interleukin 1 beta secreted (donor F242, 24 h, 0.1 μM DBT + U0126 50 μM): 312 ± 27 pg/mL
- Interleukin 1 beta secreted (donor F242, 24 h, 0.1 μM DBT, no inhibitor (CI experiment)): 2874 ± 77 pg/mL
- Interleukin 1 beta secreted (donor F242, 24 h, 0.1 μM DBT, no inhibitor (U0126 experiment)): 2172 ± 25 pg/mL
- Interleukin 1 beta secreted (donor F244, 24 h, 0.05 μM DBT + BAY 11-7085): 1107 ± 14 pg/mL
- Interleukin 1 beta secreted (donor F244, 24 h, 0.05 μM DBT + Caspase-1 inhibitor II 50 μM): 334 ± 11 pg/mL
- Interleukin 1 beta secreted (donor F244, 24 h, 0.05 μM DBT + U0126 50 μM): 61 ± 23 pg/mL
- fold increase in IL-1β secretion (donor F244, 24 h, 0.05 μM DBT, BAY 11-7085 present): 1.3 fold
- fold increase in IL-1β secretion (donor F244, 24 h, 0.05 μM DBT, absence of NFκB inhibitor): 1.2 fold
- Interleukin 1 beta secreted (donor F244, 24 h, 0.05 μM DBT, no inhibitor (BAY experiment)): 947 ± 29 pg/mL
- Interleukin 1 beta secreted (donor F244, 24 h, 0.05 μM DBT, no inhibitor (CI experiment)): 1291 ± 34 pg/mL
- Interleukin 1 beta secreted (donor F244, 24 h, 0.05 μM DBT, no inhibitor (U0126 experiment)): 1764 ± 62 pg/mL
- Interleukin 1 beta secreted (donor F244, 24 h, 0.1 μM DBT + BAY 11-7085): 1067 ± 19 pg/mL
- Interleukin 1 beta secreted (donor F244, 24 h, 0.1 μM DBT + Caspase-1 inhibitor II 50 μM): 302 ± 3 pg/mL
- Interleukin 1 beta secreted (donor F244, 24 h, 0.1 μM DBT + U0126 50 μM): 143 ± 50 pg/mL
- fold increase in IL-1β secretion (donor F244, 24 h, 0.1 μM DBT, BAY 11-7085 present): 1.3 fold
- fold increase in IL-1β secretion (donor F244, 24 h, 0.1 μM DBT, absence of NFκB inhibitor): 1.3 fold
- Interleukin 1 beta secreted (donor F244, 24 h, 0.1 μM DBT, no inhibitor (BAY experiment)): 1029 ± 59 pg/mL
- Interleukin 1 beta secreted (donor F244, 24 h, 0.1 μM DBT, no inhibitor (CI experiment)): 1444 ± 43 pg/mL
- Interleukin 1 beta secreted (donor F244, 24 h, 0.1 μM DBT, no inhibitor (U0126 experiment)): 2001 ± 184 pg/mL
- Interleukin 1 beta secreted (donor F245, 24 h, 0.05 μM DBT + BAY 11-7085): 630 ± 60 pg/mL
- Interleukin 1 beta secreted (donor F245, 24 h, 0.05 μM DBT + Caspase-1 inhibitor II 50 μM): 216 ± 19 pg/mL
- Interleukin 1 beta secreted (donor F245, 24 h, 0.05 μM DBT + U0126 50 μM): 277 ± 8 pg/mL
- fold increase in IL-1β secretion (donor F245, 24 h, 0.05 μM DBT, Caspase-1 inhibitor II 50 μM present): 1.4 fold
- fold increase in IL-1β secretion (donor F245, 24 h, 0.05 μM DBT, absence of Caspase-1 inhibitor): 1.8 fold
- Interleukin 1 beta secreted (donor F245, 24 h, 0.05 μM DBT, no inhibitor (BAY experiment)): 883 ± 66 pg/mL
- Interleukin 1 beta secreted (donor F245, 24 h, 0.05 μM DBT, no inhibitor (CI experiment)): 1399 ± 20 pg/mL
- Interleukin 1 beta secreted (donor F245, 24 h, 0.05 μM DBT, no inhibitor (U0126 experiment)): 1174 ± 49 pg/mL
- Interleukin 1 beta secreted (donor F245, 24 h, 0.1 μM DBT + BAY 11-7085): 514 ± 80 pg/mL
- Interleukin 1 beta secreted (donor F245, 24 h, 0.1 μM DBT + Caspase-1 inhibitor II 50 μM): 163 ± 10 pg/mL
- Interleukin 1 beta secreted (donor F245, 24 h, 0.1 μM DBT + U0126 50 μM): 231 ± 14 pg/mL
- fold increase in IL-1β secretion (donor F245, 24 h, 0.1 μM DBT, Caspase-1 inhibitor II 50 μM present): no increase
- fold increase in IL-1β secretion (donor F245, 24 h, 0.1 μM DBT, absence of Caspase-1 inhibitor): 1.8 fold
- Interleukin 1 beta secreted (donor F245, 24 h, 0.1 μM DBT, no inhibitor (BAY experiment)): 1206 ± 91 pg/mL
- Interleukin 1 beta secreted (donor F245, 24 h, 0.1 μM DBT, no inhibitor (CI experiment)): 1375 ± 18 pg/mL
- Interleukin 1 beta secreted (donor F245, 24 h, 0.1 μM DBT, no inhibitor (U0126 experiment)): 1246 ± 65 pg/mL
- Interleukin 1 beta secreted (donor F247, 24 h, 0.05 μM DBT + SB202190): 1495 ± 134 pg/mL
- fold increase in IL-1β secretion (donor F247, 24 h, 0.05 μM DBT, absence of p38 inhibitor): 7.2 fold
- Interleukin 1 beta secreted (donor F247, 24 h, 0.05 μM DBT, no inhibitor (SB202190 experiment)): 1378 ± 246 pg/mL
- Interleukin 1 beta secreted (donor F247, 24 h, 0.1 μM DBT + SB202190): 1329 ± 99 pg/mL
- fold increase in IL-1β secretion (donor F247, 24 h, 0.1 μM DBT, absence of p38 inhibitor): 2.5 fold
- Interleukin 1 beta secreted (donor F247, 24 h, 0.1 μM DBT, no inhibitor (SB202190 experiment)): 477 ± 60 pg/mL
- fold increase in IL-1β secretion (donor F247, 24 h, 0.05 and 0.1 μM DBT, SB202190 present): no increases
- Interleukin 1 beta secreted (donor F254, 24 h, 0.05 μM DBT + Caspase-1 inhibitor II 50 μM): 41 ± 9 pg/mL
- Interleukin 1 beta secreted (donor F254, 24 h, 0.05 μM DBT, no inhibitor (CI experiment)): 521 ± 62 pg/mL
- Interleukin 1 beta secreted (donor F254, 24 h, 0.1 μM DBT + Caspase-1 inhibitor II 50 μM): 17 ± 16 pg/mL
- Interleukin 1 beta secreted (donor F254, 24 h, 0.1 μM DBT, no inhibitor (CI experiment)): 206 ± 2 pg/mL
- Interleukin 1 beta secreted (donor F262, 24 h, 0.05 μM DBT + SB202190): 146 ± 8 pg/mL
- Interleukin 1 beta secreted (donor F262, 24 h, 0.05 μM DBT, no inhibitor (SB202190 experiment)): 1100 ± 58 pg/mL
- Interleukin 1 beta secreted (donor F262, 24 h, 0.1 μM DBT + SB202190): 134 ± 183 pg/mL
- Interleukin 1 beta secreted (donor F262, 24 h, 0.1 μM DBT, no inhibitor (SB202190 experiment)): 1021 ± 61 pg/mL
- Interleukin 1 beta secreted (donor F333, 24 h, 0.05 μM DBT + BAY 11-7085): 2518 ± 60 pg/mL
- Interleukin 1 beta secreted (donor F333, 24 h, 0.05 μM DBT, no inhibitor (BAY experiment)): 3995 ± 161 pg/mL
- Interleukin 1 beta secreted (donor F333, 24 h, 0.1 μM DBT + BAY 11-7085): 1960 ± 102 pg/mL
- Interleukin 1 beta secreted (donor F333, 24 h, 0.1 μM DBT, no inhibitor (BAY experiment)): 2755 ± 84 pg/mL
- Interleukin 1 beta secreted (donor F334, 24 h, 0.05 μM DBT + BAY 11-7085): 1035 ± 19 pg/mL
- Interleukin 1 beta secreted (donor F334, 24 h, 0.05 μM DBT, no inhibitor (BAY experiment)): 2281 ± 53 pg/mL
- Interleukin 1 beta secreted (donor F334, 24 h, 0.1 μM DBT + BAY 11-7085): 702 ± 82 pg/mL
- Interleukin 1 beta secreted (donor F334, 24 h, 0.1 μM DBT, no inhibitor (BAY experiment)): 1468 ± 94 pg/mL
- Interleukin 1 beta secreted (donor F372, 24 h, 0.05 μM DBT + SB202190): 348 ± 198 pg/mL
- Interleukin 1 beta secreted (donor F372, 24 h, 0.05 μM DBT, no inhibitor (SB202190 experiment)): 2388 ± 322 pg/mL
- Interleukin 1 beta secreted (donor F372, 24 h, 0.1 μM DBT + SB202190): 70 ± 14 pg/mL
- Interleukin 1 beta secreted (donor F372, 24 h, 0.1 μM DBT, no inhibitor (SB202190 experiment)): 1985 ± 53 pg/mL
- Interleukin 1 beta secreted (donor F385, 24 h, 0.05 μM DBT + SB202190): 65 ± 24 pg/mL
- Interleukin 1 beta secreted (donor F385, 24 h, 0.05 μM DBT, no inhibitor (SB202190 experiment)): 1863 ± 83 pg/mL
- Interleukin 1 beta secreted (donor F385, 24 h, 0.1 μM DBT, no inhibitor (SB202190 experiment)): 1126 ± 29 pg/mL
